The record followed here is patent US9416115B2, “Fused heterocyclic compounds as ion channel modulators” (Gilead Sciences, Inc., priority 2013, dated 2016).

Each structure is given as a SMILES string.

The target in one experiment is hNav1.1 (SCN1A) (Homo sapiens, UniProt P35498). The experiment can be described thus: Use-dependent inhibition of the CNS Nav1.1 sodium channel. Format: cell-based. As to conditions: use-dependent block, 25 Hz, pulse 20, read-out: Nav1.1 UDB 25 Hz 10 uM. The protocol: HEK-293 cells stably expressing wild-type (WT) hNav1.1 (SCN1A, NCBI# AB09354) were obtained from Millipore (Cat. # CYL3009) were used to record INa. Cells are maintained with standard tissue culture procedures and stable channel expression is maintained with 400 ug/mL G418 in the culture medium. Unless otherwise noted, all reagents are purchased from Sigma-Aldrich (St Louis, Mo., U.S.A.).
(§1) Assays measuring Use-Dependent Block (UDB) of Nav1.2 are performed on an automated electrophysiology platform, QPatch 16X or QPatch HT (Sophion Bioscience, Copenhagen, Denmark), using the whole cell patch clamp technique to measure currents through the cell membrane. Series resistance compensation is set to 100% and series resistance and whole-cell compensation are performed automatically. Currents stored in the Sophion Bioscience Oracle database (Sophion Bioscience, Copenhagen, Denmark). Analysis is performed using QPatch Assay software and data are compiled in Excel 2010 (Microsoft, Seattle, Wash., U.S.A.).
(§2) The internal (pipette) solution consists of (in mM) 105 CsF, 10 NaF, 20 CsCl, 2 EGTA, 10 HEPES, 10 Dextrose with a pH of 7.35 and osmolarity of 300 mOsmol/kg. The external (bath) solution contains in (mM): 145 NaCl, 4 KCl, 1.8 CaCl2, 1 MgCl2, 10 dextrose, 10 HEPES, with a pH of 7.35 and osmolarity of 310 mOsmol/kg. Experiments are carried out at 23-25° C.
(§3) Compound stocks are routinely made by the Gilead Sample Bank in vials to 10 mM in dimethyl sulfoxide (DMSO). In some cases, when compounds are not soluble in DMSO, they are made in 100% ethanol. Stocks are sonicated as necessary. […]
(§4) Cells are allowed to stabilize for 10 min after establishment of the whole-cell configuration before current is measured. The test compound is applied 2 times at 60 second intervals. After the second compound addition, a 200 second wait period was imposed to allow for equilibration. Leak currents are subtracted by using an online P/4 procedure and all currents are low-pass Bessel filtered at 5 kHz and digitized at […].
Use-dependent block of Nav1.2 peak current is measured during pulse number 20 of a voltage pulse train (0 mV, 20 ms, 20 pulses, 25 Hz) from a holding potential of −120 mV. Currents are normalized to the peak current recorded in response to the first pulse in each frequency train. The voltage protocol for UDB was performed in the absence and presence of compound and percentage inhibition was calculated with respect to the compound free condition. Results are presented as mean percentage inhibition and data analysis is performed using QPatch Assay Software 4.0, and Excel 2002 (Microsoft, Seattle, Wash., U.S.A.).

The next experiment addresses T1, hNaV1.2 (SCN2A) (Homo sapiens, UniProt Q99250).
T1 construct: expressed in transfected cells
The experiment can be described thus: Use-dependent inhibition of the CNS Nav1.2 sodium channel. Format: cell-based. As to conditions: use-dependent block, 25 Hz, pulse 20, read-out: Nav1.2 UDB 25 Hz 10 uM. As for the experimental part: HEK-293 cells stably expressing wild-type (WT) hNaV1.2 (SCN2A NCBI # NM_021007.2, SCN1B NCBI # NM_001037.4, SCN2B NCBI # NM_004588.2) were used to record INa. Cells are maintained with standard tissue culture procedures and stable channel expression is maintained with 800 ug/mL G418 and 3 ug/mL Puromycin in the culture medium. Unless otherwise noted, all reagents are purchased from Sigma-Aldrich (St Louis, Mo., U.S.A.).
as §1, §2, §3, §4
Results are presented as mean percentage inhibition.
Use-dependent block of Nav1.2 peak current is measured during pulse number 20 of a voltage pulse train (0 mV, 20 ms, 20 pulses, 25 Hz) from a holding potential of −120 mV.
Currents are normalized to the peak current recorded in response to the first pulse in each frequency train. The voltage protocol for UDB was performed in the absence and presence of compound and percentage inhibition was calculated with respect to the compound free condition.

T1 sequence (Q99250 whole entry): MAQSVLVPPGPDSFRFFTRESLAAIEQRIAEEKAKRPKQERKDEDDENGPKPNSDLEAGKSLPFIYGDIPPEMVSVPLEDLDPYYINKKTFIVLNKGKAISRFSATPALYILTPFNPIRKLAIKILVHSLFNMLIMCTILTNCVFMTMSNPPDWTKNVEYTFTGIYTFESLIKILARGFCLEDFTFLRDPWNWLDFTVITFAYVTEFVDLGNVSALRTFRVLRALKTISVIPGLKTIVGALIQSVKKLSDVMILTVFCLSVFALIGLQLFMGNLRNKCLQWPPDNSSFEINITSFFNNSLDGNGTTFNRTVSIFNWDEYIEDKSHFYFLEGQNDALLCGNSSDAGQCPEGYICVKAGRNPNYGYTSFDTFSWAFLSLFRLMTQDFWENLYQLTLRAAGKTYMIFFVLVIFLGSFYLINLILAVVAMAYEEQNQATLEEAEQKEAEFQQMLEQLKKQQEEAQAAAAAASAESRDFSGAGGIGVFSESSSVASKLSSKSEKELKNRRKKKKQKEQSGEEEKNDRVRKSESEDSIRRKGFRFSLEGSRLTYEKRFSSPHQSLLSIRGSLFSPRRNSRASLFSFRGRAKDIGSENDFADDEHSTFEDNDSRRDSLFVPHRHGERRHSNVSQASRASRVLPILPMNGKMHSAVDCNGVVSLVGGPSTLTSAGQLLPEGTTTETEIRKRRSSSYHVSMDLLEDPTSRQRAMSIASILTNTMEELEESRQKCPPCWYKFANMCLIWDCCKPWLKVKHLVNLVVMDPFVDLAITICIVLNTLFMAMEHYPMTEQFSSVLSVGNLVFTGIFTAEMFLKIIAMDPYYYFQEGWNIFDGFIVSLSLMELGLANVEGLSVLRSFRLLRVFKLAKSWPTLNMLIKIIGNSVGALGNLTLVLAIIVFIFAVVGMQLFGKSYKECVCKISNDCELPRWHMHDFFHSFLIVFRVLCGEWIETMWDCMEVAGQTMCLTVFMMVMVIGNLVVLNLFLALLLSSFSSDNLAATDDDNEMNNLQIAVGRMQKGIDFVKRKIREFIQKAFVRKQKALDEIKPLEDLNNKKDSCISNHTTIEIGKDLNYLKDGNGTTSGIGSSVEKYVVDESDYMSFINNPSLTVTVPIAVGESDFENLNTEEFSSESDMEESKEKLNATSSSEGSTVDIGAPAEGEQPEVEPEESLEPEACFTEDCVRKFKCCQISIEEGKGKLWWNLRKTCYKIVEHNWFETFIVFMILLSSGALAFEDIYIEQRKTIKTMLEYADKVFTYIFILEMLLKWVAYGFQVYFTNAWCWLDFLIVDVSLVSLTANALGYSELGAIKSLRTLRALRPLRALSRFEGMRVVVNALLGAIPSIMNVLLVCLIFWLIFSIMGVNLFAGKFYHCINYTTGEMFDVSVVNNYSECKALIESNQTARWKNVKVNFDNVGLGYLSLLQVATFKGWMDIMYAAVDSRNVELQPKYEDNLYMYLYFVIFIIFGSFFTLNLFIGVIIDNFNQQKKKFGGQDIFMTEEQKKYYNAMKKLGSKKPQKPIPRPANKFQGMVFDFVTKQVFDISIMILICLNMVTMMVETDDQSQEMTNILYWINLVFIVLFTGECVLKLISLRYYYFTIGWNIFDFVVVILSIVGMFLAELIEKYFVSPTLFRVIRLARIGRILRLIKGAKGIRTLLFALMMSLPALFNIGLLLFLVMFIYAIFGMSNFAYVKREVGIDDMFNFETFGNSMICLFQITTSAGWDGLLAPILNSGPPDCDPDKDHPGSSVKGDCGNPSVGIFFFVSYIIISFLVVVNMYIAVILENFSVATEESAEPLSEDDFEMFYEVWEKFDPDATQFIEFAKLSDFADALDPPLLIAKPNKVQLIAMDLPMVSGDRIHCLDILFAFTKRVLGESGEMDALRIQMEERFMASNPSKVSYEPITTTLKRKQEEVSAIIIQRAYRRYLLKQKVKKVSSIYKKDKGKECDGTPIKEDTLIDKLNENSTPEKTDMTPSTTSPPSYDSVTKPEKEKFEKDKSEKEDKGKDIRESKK
T1 sequence (Q07699 19-218 partner): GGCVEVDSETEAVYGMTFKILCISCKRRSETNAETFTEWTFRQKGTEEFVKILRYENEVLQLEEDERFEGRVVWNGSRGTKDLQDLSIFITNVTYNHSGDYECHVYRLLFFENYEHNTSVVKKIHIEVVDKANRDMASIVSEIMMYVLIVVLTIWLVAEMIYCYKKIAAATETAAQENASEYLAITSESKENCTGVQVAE
T1 sequence (O60939 30-215 partner): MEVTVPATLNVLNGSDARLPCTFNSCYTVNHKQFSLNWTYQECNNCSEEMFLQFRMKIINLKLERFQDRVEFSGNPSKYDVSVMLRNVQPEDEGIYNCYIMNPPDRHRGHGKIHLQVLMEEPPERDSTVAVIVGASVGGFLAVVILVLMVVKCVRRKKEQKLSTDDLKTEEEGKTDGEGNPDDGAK

Take `FC(F)(F)Oc1ccc(-c2ccc3onc(Oc4ncccn4)c3c2)cc1` [Example 124, 3-(pyrimidin-2-yloxy)-5-(4-(trifluoromethoxy)phenyl)benzo[d]isoxazole]: the inhibition at 10 µM on hNav1.1 (SCN1A) came out at 35%; at hNaV1.2 (SCN2A) it was 44.9%.

`COc1cc(OC(F)(F)F)ccc1-c1ccc2onc(OCc3ncccn3)c2c1` [Example 4, 5-(2-methoxy-4-(trifluoromethoxy)phenyl)-3-(pyrimidin-2-ylmethoxy)benzo[d]isoxazole]: the inhibition at 10 µM amounted to 14.2% on hNav1.1 (SCN1A) and 13.9% on hNaV1.2 (SCN2A).

For the compound `CC(C)[C@H](N)COc1noc2ccc(-c3ccc(OC(F)(F)F)cc3)cc12` [Example 118, (S)-3-methyl-1-((5-(4-(trifluoromethoxy)phenyl)benzo[d]isoxazol-3-yl)oxy)butan-2-amine], the inhibition at 10 µM on hNav1.1 (SCN1A) stood at 89.4%; on hNaV1.2 (SCN2A), 90.4%.

Take `O=C1OCCN1CCOc1noc2ccc(-c3ccc(OC(F)(F)F)cc3)cc12` [Example 75, 3-(2-((5-(4-(trifluoromethoxy)phenyl)benzo[d]isoxazol-3-yl)oxy)ethyl)oxazolidin-2-one]: the inhibition at 10 µM worked out at 34.2% on hNav1.1 (SCN1A) and 27.1% on hNaV1.2 (SCN2A).

As to `CN1CCC[C@H]1COc1noc2ccc(-c3ccc(OC(F)(F)F)cc3)cc12` [Example 71, (S)-3-((1-methylpyrrolidin-2-yl)methoxy)-5-(4-(trifluoromethoxy)phenyl)benzo[d]isoxazole], the figures for the inhibition at 10 µM at hNav1.1 (SCN1A) and at hNaV1.2 (SCN2A) were 93.8% and 89.6%, respectively.

For `Cc1cc(-c2ccc(OC(F)(F)F)cc2)cc2c(OCc3nnc(C4CC4)o3)noc12` [Example 105, 3-((5-cyclopropyl-1,3,4-oxadiazol-2-yl)methoxy)-7-methyl-5-(4-(trifluoromethoxy)phenyl)benzo[d]isoxazole], the figures for the inhibition at 10 µM at hNav1.1 (SCN1A) and on hNaV1.2 (SCN2A) were 75.7% and 70.9%, respectively.

On to `Cc1cc(-c2ccc3onc(OCc4ncccn4)c3c2)ccc1OC(F)(F)F` [Example 7, 5-(3-methyl-4-(trifluoromethoxy)phenyl)-3-(pyrimidin-2-ylmethoxy)benzo[d]isoxazole], for which the inhibition at 10 µM on hNav1.1 (SCN1A) and on hNaV1.2 (SCN2A) was less than 5% each time.

Take `Cc1cc2onc(OCc3ncccn3)c2cc1-c1ccc(C(F)(F)F)cc1F` [Example 28, 5-(2-fluoro-4-(trifluoromethyl)phenyl)-6-methyl-3-(pyrimidin-2-ylmethoxy)benzo[d]isoxazole]: the inhibition at 10 µM on hNav1.1 (SCN1A) and at hNaV1.2 (SCN2A) was less than 5% in each case.

On to `Cc1cc(-c2ccc(OC(F)(F)F)cc2)cc2c(OCc3cn(C)nn3)noc12` [Example 87, 7-methyl-3-((1-methyl-1H-1,2,3-triazol-4-yl)methoxy)-5-(4-(trifluoromethoxy)phenyl)benzo[d]isoxazole], for which the inhibition at 10 µM was found to be 90.8% at hNav1.1 (SCN1A) and 87% on hNaV1.2 (SCN2A).

In the case of `FC(F)(F)Oc1ccc(-c2ccc3onc(-n4cnc(C(F)(F)F)c4)c3c2)cc1` [Example 145, 5-(4-(trifluoromethoxy)phenyl)-3-(4-(trifluoromethyl)-1H-imidazol-1-yl)benzo[d]isoxazole], the inhibition at 10 µM on hNav1.1 (SCN1A) is 81.4%; at hNaV1.2 (SCN2A) it was 75.8%.

For `Cc1nccnc1COc1noc2ccc(-c3ccc(OC(F)(F)F)cc3)cc12` [Example 152, 3-((3-methylpyrazin-2-yl)methoxy)-5-(4-(trifluoromethoxy)phenyl)benzo[d]isoxazole], the inhibition at 10 µM on hNav1.1 (SCN1A) came out at 11.4%; at hNaV1.2 (SCN2A), 13.8%.

With `COc1cc2onc(OCc3ncccn3)c2cc1-c1ccc(F)c(Cl)c1` [Example 15, 5-(3-chloro-4-fluorophenyl)-6-methoxy-3-(pyrimidin-2-ylmethoxy)benzo[d]isoxazole], the inhibition at 10 µM at hNav1.1 (SCN1A) and at hNaV1.2 (SCN2A) was less than 5% in each case.

Take `Nc1noc2ccc(-c3ccc(OC(F)(F)F)cc3)cc12` [Example 147, 5-(4-(trifluoromethoxy)phenyl)benzo[d]isoxazol-3-amine]: the inhibition at 10 µM amounted to 32% at hNav1.1 (SCN1A) and 20.4% at hNaV1.2 (SCN2A).

As for `FC(F)(F)Oc1ccc(-c2ccc3onc(OCc4cccnn4)c3c2)cc1` [Example 74, 3-(pyridazin-3-ylmethoxy)-5-(4-(trifluoromethoxy)phenyl)benzo[d]isoxazole], the inhibition at 10 µM on hNav1.1 (SCN1A) and on hNaV1.2 (SCN2A) was less than 5% each time.

For the compound `COc1ccnc(COc2noc3ccc(-c4ccc(OC(F)(F)F)cc4)cc23)n1` [Example 67, 3-((4-methoxypyrimidin-2-yl)methoxy)-5-(4-(trifluoromethoxy)phenyl)benzo[d]isoxazole], the inhibition at 10 µM was 5.26% on hNav1.1 (SCN1A) and less than 5% on hNaV1.2 (SCN2A).

As for `COc1cc2onc(OCc3ncccn3)c2cc1-c1ccc(OC(F)(F)F)c(C)c1` [Example 14, 6-methoxy-5-(3-methyl-4-(trifluoromethoxy)phenyl)-3-(pyrimidin-2-ylmethoxy)benzo[d]isoxazole], the inhibition at 10 µM at hNav1.1 (SCN1A) came out at 34.5%; on hNaV1.2 (SCN2A), 9.6%.

With `FC(F)(F)Oc1ccc(-c2ccc3onc(OCc4cnccn4)c3c2)cc1` [Example 151, 3-(pyrazin-2-ylmethoxy)-5-(4-(trifluoromethoxy)phenyl)benzo[d]isoxazole], the inhibition at 10 µM on hNav1.1 (SCN1A) worked out at 20%; at hNaV1.2 (SCN2A), 18.6%.

Take `FC(F)(F)Oc1ccc(-c2ccc3onc(NCCn4cncn4)c3c2)cc1` [Example 137, N-(2-(1H-1,2,4-triazol-1-yl)ethyl)-5-(4-(trifluoromethoxy)phenyl)benzo[d]isoxazol-3-amine]: the inhibition at 10 µM at hNav1.1 (SCN1A) came to 82.6%; on hNaV1.2 (SCN2A) it was 86%.

On to `CN1CCN(c2noc3ccc(-c4ccc(OC(F)(F)F)cc4)cc23)CC1` [Example 127, 3-(4-methylpiperazin-1-yl)-5-(4-(trifluoromethoxy)phenyl)benzo[d]isoxazole], for which the inhibition at 10 µM stood at 82.8% on hNav1.1 (SCN1A) and 76.5% on hNaV1.2 (SCN2A).

Regarding `CCn1ccnc1COc1noc2ccc(-c3ccc(OC(F)(F)F)cc3)cc12` [Example 47, 3-((1-ethyl-1H-imidazol-2-yl)methoxy)-5-(4-(trifluoromethoxy)phenyl)benzo[d]isoxazole], the inhibition at 10 µM on hNav1.1 (SCN1A) came to 55.5%; on hNaV1.2 (SCN2A), 31.5%.

As to `O=C1NCC[C@H]1Oc1noc2ccc(-c3ccc(OC(F)(F)F)cc3)cc12` [Example 72, (R)-3-((5-(4-(trifluoromethoxy)phenyl)benzo[d]isoxazol-3-yl)oxy)pyrrolidin-2-one], the inhibition at 10 µM at hNav1.1 (SCN1A) amounted to 78.1%; at hNaV1.2 (SCN2A), 75.4%.

On to `FC(F)(F)Oc1ccc(-c2ccc3onc(OCCNc4ncccn4)c3c2)cc1` [Example 123, N-(2-((5-(4-(trifluoromethoxy)phenyl)benzo[d]isoxazol-3-yl)oxy)ethyl)pyrimidin-2-amine], for which the inhibition at 10 µM at hNav1.1 (SCN1A) and on hNaV1.2 (SCN2A) was less than 5% throughout.

Regarding `Fc1cc(-c2ccc3onc(OCc4ncccn4)c3c2)ccc1Cl` [Example 8, 5-(4-chloro-3-fluorophenyl)-3-(pyrimidin-2-ylmethoxy)benzo[d]isoxazole], the inhibition at 10 µM on hNav1.1 (SCN1A) and at hNaV1.2 (SCN2A) was less than 5% in each case.

Consider `Cc1cc(COc2noc3ccc(-c4ccc(OC(F)(F)F)cc4)cc23)on1` [Example 102, 3-((3-methylisoxazol-5-yl)methoxy)-5-(4-(trifluoromethoxy)phenyl)benzo[d]isoxazole], for which the inhibition at 10 µM at hNav1.1 (SCN1A) was less than 5%; on hNaV1.2 (SCN2A), 20.6%.

With `FC(F)(F)Oc1ccc(-c2ccc3onc(NCC4CC4)c3c2)cc1` [Example 128, N-(cyclopropylmethyl)-5-(4-(trifluoromethoxy)phenyl)benzo[d]isoxazol-3-amine], the inhibition at 10 µM at hNav1.1 (SCN1A) and at hNaV1.2 (SCN2A) was less than 5% in each case.
